# PMC8398451, “Molecular Engineering of Curcumin, an Active Constituent of Curcuma longa L. (Turmeric) of the Family Zingiberaceae with Improved Antiproliferative Activity” (Plants, 2021)
# pIC50: −log10 of the molar value. Like-named read-outs stand apart in the source and are kept apart here.
# Assays:
# MCF7 = assay: NCI antiproliferative SRB assay, Breast Cancer panel; type: cell-based, Human
# SK-OV-3 = assay: NCI antiproliferative SRB assay, Ovarian Cancer panel; type: cell-based, Human
# NCI-H226 = assay: NCI antiproliferative SRB assay, Non-Small Cell Lung Cancer panel; type: cell-based, Human
# EKVX = assay: as above; type: cell-based, Human
# T-47D = assay: NCI antiproliferative SRB assay, Breast Cancer panel; type: cell-based, Human
# NCI-H522 = assay: NCI antiproliferative SRB assay, Non-Small Cell Lung Cancer panel; type: cell-based, Human
# SK-MEL-28 = assay: NCI antiproliferative SRB assay, Melanoma panel; type: cell-based, Human
# MDA-MB-435 = assay: NCI antiproliferative SRB assay, Melanoma panel; type: cell-based
# SN 12C = assay: NCI antiproliferative SRB assay, Renal Cancer panel; type: cell-based, Human
# HOP-92 = assay: NCI antiproliferative SRB assay, Non-Small Cell Lung Cancer panel; type: cell-based
# HCT-15 = assay: NCI antiproliferative SRB assay, Colon Cancer panel; type: cell-based, Human
# [1] = tested on: Colon Cancer cell line panel; assay: NCI antiproliferative assay, panel summary; type: cell-based, Human
# NCI/ADR-RES = assay: NCI antiproliferative SRB assay, Ovarian Cancer panel; type: cell-based, Human
# A498 = assay: NCI antiproliferative SRB assay, Renal Cancer panel; type: cell-based, Human
# [2] = tested on: Breast Cancer cell line panel; assay: NCI antiproliferative assay, panel summary; type: cell-based, Human
# 60 NCI cancer cell lines = assay: NCI antiproliferative assay, summary over all lines; type: cell-based
# OVCAR-4 = assay: NCI antiproliferative SRB assay, Ovarian Cancer panel; type: cell-based, Human
# SF-539 = assay: NCI antiproliferative SRB assay, CNS Cancer panel; type: cell-based, Human
# EGFR = target: T1, EGFR (Homo sapiens, UniProt P00533); assay: Spectrophotometric assay for EGFR tyrosine kinase inhibition in A431 cells; type: cell-based; conditions: absorbance at 540 nm
# T1 construct: tested for anti-EGFR activity in human A431 cells, which express high levels of EGFR protein; endogenous in cells; host or cells: human A431 cells
# T1 sequence (P00533 25-1210): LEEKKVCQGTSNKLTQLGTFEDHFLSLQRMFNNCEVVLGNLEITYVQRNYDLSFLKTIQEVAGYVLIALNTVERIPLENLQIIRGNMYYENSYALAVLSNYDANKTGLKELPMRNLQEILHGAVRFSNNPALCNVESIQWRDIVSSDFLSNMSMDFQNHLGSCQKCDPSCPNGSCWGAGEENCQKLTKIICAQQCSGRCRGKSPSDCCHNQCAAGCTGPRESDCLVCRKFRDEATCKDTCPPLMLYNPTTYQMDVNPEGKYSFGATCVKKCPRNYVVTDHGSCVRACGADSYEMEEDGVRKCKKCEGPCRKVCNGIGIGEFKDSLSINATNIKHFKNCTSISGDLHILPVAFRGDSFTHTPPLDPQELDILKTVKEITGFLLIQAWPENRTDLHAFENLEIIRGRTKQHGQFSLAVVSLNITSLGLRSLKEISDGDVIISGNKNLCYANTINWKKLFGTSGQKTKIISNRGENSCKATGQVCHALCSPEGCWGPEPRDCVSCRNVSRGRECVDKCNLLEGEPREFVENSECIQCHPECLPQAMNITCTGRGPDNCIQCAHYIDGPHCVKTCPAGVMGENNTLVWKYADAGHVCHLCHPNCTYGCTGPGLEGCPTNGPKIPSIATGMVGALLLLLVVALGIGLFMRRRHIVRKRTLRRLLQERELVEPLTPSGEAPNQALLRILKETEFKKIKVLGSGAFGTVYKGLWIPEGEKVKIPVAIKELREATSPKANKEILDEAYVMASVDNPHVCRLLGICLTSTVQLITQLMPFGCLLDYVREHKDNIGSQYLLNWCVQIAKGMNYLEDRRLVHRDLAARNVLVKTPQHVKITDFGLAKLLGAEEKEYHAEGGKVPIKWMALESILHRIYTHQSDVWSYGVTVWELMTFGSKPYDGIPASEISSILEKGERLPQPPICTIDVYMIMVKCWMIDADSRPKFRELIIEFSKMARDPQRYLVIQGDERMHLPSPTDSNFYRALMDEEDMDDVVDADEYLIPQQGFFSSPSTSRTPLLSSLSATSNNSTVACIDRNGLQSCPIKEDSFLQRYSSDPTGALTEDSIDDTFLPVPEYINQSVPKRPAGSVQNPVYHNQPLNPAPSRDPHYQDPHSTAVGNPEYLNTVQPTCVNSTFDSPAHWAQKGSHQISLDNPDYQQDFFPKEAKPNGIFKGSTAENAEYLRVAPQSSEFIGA
# COLO 205 = assay: NCI antiproliferative SRB assay, Colon Cancer panel; type: cell-based, Human
# MALME-3M = assay: NCI antiproliferative SRB assay, Melanoma panel; type: cell-based, Human
# NCI-H23 = assay: NCI antiproliferative SRB assay, Non-Small Cell Lung Cancer panel; type: cell-based, Human
# [3] = tested on: Renal Cancer cell line panel; assay: NCI antiproliferative assay, panel summary; type: cell-based, Human; conditions: Renal Cancer panel
# SW-620 = assay: NCI antiproliferative SRB assay, Colon Cancer panel; type: cell-based, Human
# OVCAR-3 = assay: NCI antiproliferative SRB assay, Ovarian Cancer panel; type: cell-based, Human
# [4] = Homo sapiens, 5-dose 0.01-100 µM
# [5] = Homo sapiens, 5-dose 0.01-100 µM, read-out: LC50 (the source's name)
# [6] = Homo sapiens, T47D, 5-dose 0.01-100 µM
# [7] = Homo sapiens, 5-dose assay, read-out: Sub Panel MID b (mean GI50 of panel)
# [8] = mean over cell lines, one dose 10 µM
structure (smiles),measurement,setting,value
COc1ccc(NC(=O)n2nc(/C=C/c3ccc(O)c(OC)c3)cc2/C=C/c2ccc(O)c(OC)c2)cc1 [3b],TGI,MCF7; 5-dose 0.01-100 µM,17.0 µM
same,GI50,MCF7; [4],3.3 µM
same,CC50,MCF7; [5],> 100 µM
same,%GI,MCF7; one dose 10 µM,84.37%
same,GP (growth percent),MCF7; one dose 10 µM,15.63
same,TGI,SK-OV-3; 5-dose 0.01-100 µM,27.5 µM
same,GI50,SK-OV-3; [4],3.66 µM
same,CC50,SK-OV-3; [5],> 100 µM
same,%GI,SK-OV-3; one dose 10 µM,39.26%
same,GP (growth percent),SK-OV-3; one dose 10 µM,60.74
same,TGI,NCI-H226; 5-dose 0.01-100 µM,78.6 µM
same,GI50,NCI-H226; [4],10.7 µM
same,CC50,NCI-H226; [5],> 100 µM
same,%GI,NCI-H226; one dose 10 µM,12.85%
same,GP (growth percent),NCI-H226; one dose 10 µM,87.15
same,TGI,EKVX; 5-dose 0.01-100 µM,83.7 µM
same,GI50,EKVX; [4],6.62 µM
same,CC50,EKVX; [5],> 100 µM
same,%GI,EKVX; one dose 10 µM,47.61%
same,GP (growth percent),EKVX; one dose 10 µM,52.39
same,TGI,T-47D; 5-dose 0.01-100 µM,25.8 µM
same,GI50,T-47D; [6],3.68 µM
same,"LC50 (lethal concentration, 50% cell kill)",T-47D; [6],> 100 µM
same,%GI,T-47D; one dose 10 µM,65.17%
same,GP (growth percent),T-47D; one dose 10 µM,34.83
same,TGI,NCI-H522; 5-dose 0.01-100 µM,12.7 µM
same,GI50,NCI-H522; [4],1.76 µM
same,CC50,NCI-H522; [5],> 100 µM
same,%GI,NCI-H522; one dose 10 µM,113.52%
same,GP (growth percent),NCI-H522; one dose 10 µM,−13.52
same,TGI,SK-MEL-28; 5-dose 0.01-100 µM,92.7 µM
same,GI50,SK-MEL-28; [4],3.52 µM
same,CC50,SK-MEL-28; [5],> 100 µM
same,%GI,SK-MEL-28; one dose 10 µM,65.47%
same,GP (growth percent),SK-MEL-28; one dose 10 µM,34.53
same,TGI,MDA-MB-435; 5-dose 0.01-100 µM,4.68 µM
same,GI50,MDA-MB-435; Homo sapiens,1.25 µM
same,CC50,MDA-MB-435; [5],> 100 µM
same,%GI,MDA-MB-435; one dose 10 µM,136.25%
same,GP (growth percent),MDA-MB-435; one dose 10 µM,−36.25
same,TGI,SN 12C; 5-dose 0.01-100 µM,33.7 µM
same,GI50,"SN 12C; Homo sapiens, SN12C, 5-dose 0.01-100 µM",3.05 µM
same,CC50,"SN 12C; Homo sapiens, SN12C, 5-dose 0.01-100 µM, read-out: LC50 (the source's name)",> 100 µM
same,%GI,SN 12C; one dose 10 µM,68.55%
same,GP (growth percent),SN 12C; one dose 10 µM,31.45
same,TGI,HOP-92; 5-dose 0.01-100 µM,>100 µM
same,GI50,"HOP-92; Homo sapiens, 5-dose 0.01-100 µM, read-out: GI50",7.77 µM
same,CC50,HOP-92; [5],> 100 µM
same,%GI,HOP-92; one dose 10 µM,10.93%
same,GP (growth percent),HOP-92; one dose 10 µM,89.07
same,TGI,HCT-15; 5-dose 0.01-100 µM,>100 µM
same,GI50,HCT-15; [4],2.98 µM
same,CC50,HCT-15; [5],> 100 µM
same,GP (growth percent),HCT-15; one dose 10 µM,13.17
same,Mean % GI,[1]; 10 µM,60%
same,Selectivity Ratio (MID a:MID b),[1]; 5-dose assay,0.85
same,GI50,[1]; [7],5.77 µM
same,TGI,NCI/ADR-RES; 5-dose 0.01-100 µM,>100 µM
same,GI50,NCI/ADR-RES; [4],4.28 µM
same,CC50,NCI/ADR-RES; [5],> 100 µM
same,%GI,NCI/ADR-RES; one dose 10 µM,76.11%
same,GP (growth percent),NCI/ADR-RES; one dose 10 µM,23.89
same,TGI,A498; 5-dose 0.01-100 µM,56.4 µM
same,GI50,A498; [4],17.2 µM
same,CC50,A498; [5],> 100 µM
same,%GI,A498; one dose 10 µM,17.53%
same,GP (growth percent),A498; one dose 10 µM,82.47
same,Mean % GI,[2]; 10 µM,69.71%
same,Selectivity Ratio (MID a:MID b),[2]; 5-dose assay,1.19
same,GI50,[2]; [7],4.12 µM
same,GI50,"60 NCI cancer cell lines; Homo sapiens, read-out: GI50 values, range over cell lines",1.25 to 18.8 µM
same,CC50,"60 NCI cancer cell lines; Homo sapiens, 5-dose assay, read-out: LC50 over cell lines",> 100 µM
same,GI50,"60 NCI cancer cell lines; Homo sapiens, 5-dose assay, read-out: MID a (mean GI50 of 60 NCI cancer cell lines)",4.89 µM
same,Mean % GI,60 NCI cancer cell lines; [8],66.46%
same,Mean GP,60 NCI cancer cell lines; [8],33.54
same,TGI,OVCAR-4; 5-dose 0.01-100 µM,90.7 µM
same,GI50,OVCAR-4; [4],5.72 µM
same,CC50,OVCAR-4; [5],> 100 µM
same,%GI,OVCAR-4; one dose 10 µM,48.49%
same,GP (growth percent),OVCAR-4; one dose 10 µM,51.51
same,TGI,SF-539; 5-dose 0.01-100 µM,13.6 µM
same,GI50,SF-539; [4],2.35 µM
same,CC50,SF-539; [5],> 100 µM
same,%GI,SF-539; one dose 10 µM,93.28%
same,GP (growth percent),SF-539; one dose 10 µM,6.72
same,pIC50,EGFR,5.41
same,TGI,COLO 205; 5-dose 0.01-100 µM,44.3 µM
same,GI50,COLO 205; [4],16.2 µM
same,CC50,COLO 205; [5],> 100 µM
same,%GI,COLO 205; one dose 10 µM,−6.58%
same,GP (growth percent),COLO 205; one dose 10 µM,106.58
same,TGI,MALME-3M; 5-dose 0.01-100 µM,38.6 µM
same,GI50,MALME-3M; [4],3.66 µM
same,CC50,MALME-3M; [5],> 100 µM
same,%GI,MALME-3M; one dose 10 µM,48.14%
same,GP (growth percent),MALME-3M; one dose 10 µM,51.86
same,TGI,NCI-H23; 5-dose 0.01-100 µM,63.8 µM
same,GI50,NCI-H23; [4],3.81 µM
same,CC50,NCI-H23; [5],> 100 µM
same,%GI,NCI-H23; one dose 10 µM,56.06%
same,GP (growth percent),NCI-H23; one dose 10 µM,43.94
same,GI50,[3]; [7],5.84 µM
same,Mean % GI,[3]; 10 µM,60.54%
same,Selectivity Ratio (MID a:MID b),[3]; 5-dose assay,0.84
same,TGI,SW-620; 5-dose 0.01-100 µM,61.6 µM
same,GI50,SW-620; [4],5.51 µM
same,CC50,SW-620; [5],> 100 µM
same,%GI,SW-620; one dose 10 µM,72.90%
same,GP (growth percent),SW-620; one dose 10 µM,27.10
same,TGI,OVCAR-3; 5-dose 0.01-100 µM,8.40 µM
same,GI50,OVCAR-3; [4],2.98 µM
same,CC50,OVCAR-3; [5],> 100 µM
same,%GI,OVCAR-3; one dose 10 µM,86.38%
same,GP (growth percent),OVCAR-3; one dose 10 µM,13.62
